The record followed here is patent publication US10668049B2, “Methods of treating cognitive decline with transforming growth factor beta inhibitors” (The Regents of the University of California, priority 2008, dated 2020).

Format in all cases: cell-based, rat
One experiment deals with astrocytic cultures. The experiment can be described thus: RT-PCR of astrocytic cultures exposed to albumin. The conditions noted are these: albumin for 24 h. Here is the method:
(§1) Primary neuronal cortical cultures were prepared from embryonic day 18 rats as reported previously (Kaufer et al., 2004). Briefly, cells were dissociated with a papain solution for 20 min at 37° C., After the removal of the papain solution, the tissue was resuspended in growth medium [MEM with Earle's salts containing 2.5% B27 supplement, 0.1% mito serum extender, 5% fetal bovine serum (FBS), 20 mM glucose, and 5 mM L-glutamine] and dissociated by mechanical trituration. The cells were plated, and after 4 h in vitro the cell culture medium was replaced with neurobasal medium supplemented with 2% B27 supplement and 0.5 mM GlutaMAX™. The cells were maintained in 5% CO2 at 37° C. After 7 days in vitro, cytosine arabinofuranoside (AraC) (10 μM) was added to the cultures. After 10 days in vitro, the cells were incubated with 0.4 mM albumin for 24 h at 37° C. For astrocytic cultures, astrocytcs were isolated from the cerebral cortices of PO rat pups. Cells were dissociated with papain and mechanical trituration. The cells were cultured in high-glucose Dulbecco's modified eagle medium supplemented with 10% FBS and 1% penicillin/streptomycin at 37° C. and in 5% C02 (medium was replaced every 3-4 days). After 10 days in vitro, the culture medium was replaced with serum-free high-glucose DMEM (containing 1% penicillin/streptomycin) for 18 h. The cells were then incubated in scrum-free medium containing 0.4 mM albumin for 24 h at 37° C. For immunostainings cells were washed with phosphate buffered saline (PBS) and fixed in 4% paraformaldehyde for 15 min. The cells were permeabilized with 0.2% Triton X-100 in PBS for 5 min and washed in PBS. They were then incubated with 5% normal donkey serum in PBS for one hour at room temperature followed by overnight incubation at 4° C. with either mouse anti-NeuN (1:1000: Chemicon, Temecula, Calif.) or mouse anti-GFAP (1:1000: Cell Signaling Technology, Beverly, Mass.). The cells were washed in PBS, incubated with donkey anti-mouse Cy3 (1:1000; Jackson ImmunoResearch. West Grove, Pa.) for 1 hour at room temperature, and then counterstained with DAPI.
Total RNA was isolated from the somatosensory cortices of animals treated with DOC or albumin (24 h treatment; n=3) or from primary cultures (astrocytic and neuronal, n=3 independent experiments). Expression levels were determined by real-time reverse transcriptase-PCR (RT-PCR) with an iQ5 detection system (Bio-Rad, Hercules, Calif.) using gene-specific primer pairs. RT-PCR data were analyzed using the PCR Miner program (Zhao and Fernald, 2005), and fold changes in gene expression were represented relative to sham-operated controls (in-vivo samples) or serum-deprived controls (in-vitro, samples). Ribosomal 18S RNA (18S rRNA) was used as an internal control for variations in sample preparation. For samples from in-vivo treatments, RT-PCR was performed with the iScript one-step RT-PCR kit (Bio-Rad). Control RT-PCR reactions were performed without reverse transcriptase to verify amplification of genomic DNA. For in-vitro samples, DNase treatment was applied, followed by first-strand cDNA synthesis (iScript cDNA Synthesis kit, Bio-Rad). PCR reactions were carried out with iQ SYBR Green Supermix (Bio-Rad). Primer specificity was verified by melt curve analysis. The amplification cycles for 18S, Gja1, GS, SLC1A2, SLC1A3 (GLAST) and Kenj10 consisted of 40 cycles of 10 s at 95° C., 30 s at 55° C., and 30 s at 72° C. […]

Experiment [1] has as its system neuronal-enriched culture. The experiment is described as follows: RT-PCR of neuronal-enriched cultures exposed to albumin. The conditions noted are these: albumin for 24 h. Here is the method: as §1, with “For immunostainings cells were washed with phosphate buffered saline (PBS) and fixed in 4% paraformaldehyde for 15 min. The cells were permeabilized with 0.2% Triton X-100 in PBS for 5 min and washed in PBS. They were then incubated with 5% normal donkey serum in PBS for one hour at room temperature followed by overnight incubation at 4° C. with either mouse anti-NeuN (1:1000: Chemicon, Temecula, Calif.) or mouse anti-GFAP (1:1000: Cell Signaling Technology, Beverly, Mass.). The cells were washed in PBS, incubated with donkey anti-mouse Cy3 (1:1000; Jackson ImmunoResearch. West Grove, Pa.) for 1 hour at room temperature, and then counterstained with DAPI.” left out
Total RNA was isolated from the somatosensory cortices of animals treated with DOC or albumin (24 h treatment; n=3) or from primary cultures (astrocytic and neuronal, n=3 independent experiments). Expression levels were determined by real-time reverse transcriptase-PCR (RT-PCR) with an iQ5 detection system (Bio-Rad, Hercules, Calif.) using gene-specific primer pairs. RT-PCR data were analyzed using the PCR Miner program (Zhao and Fernald, 2005), and fold changes in gene expression were represented relative to sham-operated controls (in-vivo samples) or serum-deprived controls (in-vitro, samples). […]

Another experiment deals with brain slices. The experiment is described as follows: Field potentials during train stimulation in brain slices exposed to albumin in sACSF. The conditions noted are these: for field potential duration (at ⅓ maximal amplitude), 1st stimulus / field potential duration (at ⅓ maximal amplitude), 5th stimulus: treated. Here is the method:
For electrophysiological experiments, rats were deeply anesthetized with isoflurane and then decapitated. Brains were quickly removed, and transverse hippocampal-cortical slices ([…] thick) were prepared using a vibratome (Campden Instruments, Loughborough, UK). Slices were maintained in a humidified, carbogenated (5% CO2 and 95% O2) gas atmosphere at 36±1° C. and perfused with ACSF in a standard interface chamber (Seiffert et al., 2004; Ivens et al., 2007). To mimic the altered ionic environment during BBB disruption, recordings were acquired in a serum-adapted electrolyte solution (sACSF; see Seiffert et al. 2004). sACSF was similar in composition to the ACSF except for different concentrations of MgSO4 (0.8 mM), CaCl2 (1.3 mM), KCl (5.7 mM) and glutamine (1 mM). “Treated” slices were incubated with sACSF containing 0.1 mM bovine serum albumin for 2 h before transfer to the perfusion chamber.
Electrophysiological recordings were obtained 6-10 h following perfusion with sACSF. Control slices were treated similarly, using sACSF without albumin. For extracellular recordings, glass microelectrodes (˜3 MΩ, 154 mM NaCl) were positioned in layer 4 of the neocortex. Slices were stimulated with brief (100 μs) pulses, by using bipolar stimulation electrodes placed at the border between white and gray matter in the same conical column. Trains of 50 stimuli were applied at 2, 5, 10, 20, 50 and 100 Hz, at 2.5× threshold stimulation intensity. […] Extracellular potassium concentrations ([K+]o) were measured with ion-sensitive microelectrodes (ISMEs; Lux and Neher, 1973: Jauch et al., 2002).
The simulation data presented above predicted maximal EPSP facilitation at 20 Hz when [K^+]o clearance is reduced and decreased facilitation (at 50-100 Hz) when the only change induced is glutamate accumulation in the synaptic cleft. Field potentials in response to stimulation at various frequencies in brain slices during “epileptogenesis” (exposure to albumin in sACSF) compared to controls (sACSF alone) were therefore measured.

Setting [2] is: 100 Hz stimulation, treated (n=4).

Regarding “albumin: bovine serum albumin, used to induce epileptogenesis”, in the experiment with astrocytic cultures, the GS transcript expression result is on record as “significant down-regulation”, the Gja1 transcript expression entry is on record as “significant down-regulation”, the Gjb2 transcript expression entry was “significant down-regulation” and the Gjb6 transcript expression entry is on record as “significant down-regulation”. The S1C1A3 transcript expression entry with astrocytic cultures was “significant down-regulation”. Moreover, in experiment [1], the “GS mRNA levels” value is recorded as “downregulation”; the “Gjb6 mRNA levels” value was “upregulation”; the “expression levels of the same transcripts (except GS and Gjb6)” value is on record as “No significant differences”. In addition, the “stimulation-induced long-lasting epileptiform discharges, slices showing them” value with brain slices (5 Hz stimulation) is 2 of 4. In the experiment on brain slices (10-Hz stimulation), the “stimulation-induced long-lasting epileptiform discharges, slices showing them” value is recorded as 4 of 4. In addition, in the experiment on brain slices (10 Hz), the “field potential duration (at ⅓ maximal amplitude), 1st stimulus” value was determined as 6.5 ± 0.7 ms and the “field potential duration (at ⅓ maximal amplitude), 5th stimulus” value was determined as 13.1 ± 2.6 ms. For the same substance, in the experiment on brain slices (20 Hz stimulation), the “stimulation-induced long-lasting epileptiform discharges, slices showing them” value is recorded as 3 of 4. Further, in the experiment on brain slices (20 Hz), the “field potential duration (at ⅓ maximal amplitude), 1st stimulus” value worked out at 6.6 ± 0.8 ms and the “field potential duration (at ⅓ maximal amplitude), 5th stimulus” value stood at 12.9 ± 2.9 ms. In addition, in the experiment on brain slices (setting [2]), the “field potential amplitude, 1st stimulus” value is 1.44±0.36 mV and the “field potential amplitude, 5th stimulus” value worked out at 0.47±0.09 mV.
